# Data reported in patent US10774064B2 (Cadent Therapeutics, Inc., priority 2016, dated 2020).
# Target: T1, small-conductance Ca2+-activated K+ channels (SK channels, subtype 2) (Homo sapiens, UniProt Q9H2S1)
# T1 construct: expressed in transfected cells; host or cells: HEK293
# Test: whole-cell patch-clamp of ionic current through SK2 channels in HEK293 cells (SC100)
# Format: cell-based
# Details: concentration that increases the basal current by 100%; HEK293 cells expressing SK2 channels
# Method in brief: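 SC100, the concentration doubling basal current (a 100% increase), was taken from SK2 currents recorded by whole-cell patch-clamp in SK2-expressing HEK293 cells.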
row,SMILES,SC100
1,"Cc1cc(C)n(-c2nc(NC3CCC(F)(F)CC3)cc(NC(C)C(N)=O)n2)n1 (stereo not shown) [Compound 109, 2-((6-((4,4-difluorocyclohexyl)amino)-2-(3,5-dimethyl-1H-pyrazol-1-yl)pyrimidin-4-yl)amino)propanamide]",+ (+ means >1 uM)
2,"Cc1ccn(-c2nc(NC3CCC(F)(F)CC3)cc(NC3CC(F)(F)C3)n2)n1 [Compound 147, N4-(3,3-difluorocyclobutyl)-N6-(4,4-difluorocyclohexyl)-2-(3-methyl-1H-pyrazol-1-yl)pyrimidine-4,6-diamine]",++ (++ means 200 nM-1000 nM)
3,"CC(=O)NCc1cc(NC2CCC(F)(F)CC2)nc(-n2ccc(CF)n2)c1 [Compound 312, N-((2-((4,4-difluorocyclohexyl)amino)-6-(3-(fluoromethyl)-1H-pyrazol-1-yl)pyridin-4-yl)methyl)acetamide]",++ (++ means 200 nM-1000 nM)
4,"CCc1cnc(-n2nc(C)cc2C)nc1NC1CCC(F)(F)CC1 [Compound 111, N-(4,4-difluorocyclohexyl)-2-(3,5-dimethyl-1H-pyrazol-1-yl)-5-ethylpyrimidin-4-amine]",+ (+ means >1 uM)
5,"Cc1cc(C)n(-c2cc(OCc3nnc(C)o3)cc(NC3CCC(F)(F)CC3)n2)n1 [Compound 261, N-(4,4-difluorocyclohexyl)-6-(3,5-dimethyl-1H-pyrazol-1-yl)-4-((5-methyl-1,3,4-oxadiazol-2-yl)methoxy)pyridin-2-amine]",++ (++ means 200 nM-1000 nM)
6,"Cc1cc(C)n(-c2cc(OCc3ncnn3C)cc(NC3CCC(F)(F)CC3)n2)n1 [Compound 271, N-(4,4-difluorocyclohexyl)-6-(3,5-dimethyl-1H-pyrazol-1-yl)-4-((1-methyl-1H-1,2,4-triazol-5-yl)methoxy)pyridin-2-amine]",++ (++ means 200 nM-1000 nM)
7,"Cc1cc(C)n(-c2nc(CO)cc(NC3CCC(F)(F)CC3)n2)n1 [Compound 137, (6-((4,4-difluorocyclohexyl)amino)-2-(3,5-dimethyl-1H-pyrazol-1-yl)pyrimidin-4-yl)methanol]",++ (++ means 200 nM-1000 nM)
8,COCc1cc(NC2CCC(F)(F)CC2)nc(-n2nc(C)cc2C)n1 [Compound 193],+ (+ means >1 uM)
9,Cc1cc(NC2CCC(F)(F)CC2)nc(-n2ccc(C(F)F)n2)n1 [Compound 216],++ (++ means 200 nM-1000 nM)
10,"Cc1cc(C)n(-c2nc(NC3CCC(F)(F)CC3)cc(NC(C(N)=O)C(C)C)n2)n1 (stereo in doubt) [Compound 164, (R)-2-((6-((4,4-difluorocyclohexyl)amino)-2-(3,5-dimethyl-1H-pyrazol-1-yl)pyrimidin-4-yl)amino)-3-methylbutanamide]",+ (+ means >1 uM)
11,"Cc1cn(-c2nc(NC3CCC(F)(F)CC3)cc(N3CCOCC3)n2)nc1CF [Compound 281, N-(4,4-difluorocyclohexyl)-2-(3-(fluoromethyl)-4-methyl-1H-pyrazol-1-yl)-6-morpholinopyrimidin-4-amine]",++ (++ means 200 nM-1000 nM)

# Same assay, conditions: whole-cell patch-clamp, HEK293 cells expressing SK2 channels; concentration that increases the basal current by 100%
row,SMILES,SC100 (μM)
1,"FCc1ccn(-c2nc(NC3CCC(F)(F)CC3)cc(OC3CC(F)C3)n2)n1 (stereo not shown) [NSSy5618, N-(4,4-difluorocyclohexyl)-6-(3-fluorocyclobutoxy)-2-(3-(fluoromethyl)-1H-pyrazol-1-yl)pyrimidin-4-amine]",+ (+ means >1 uM)
2,Cc1ccn(-c2nc(NCC3CCCO3)cc(C(C)O)n2)n1 (stereo not shown) [IN10880-055-P1],+ (+ means >1 uM)
3,Fc1ccn(-c2cc(N3CCOCC3)nc(NC3CCC(F)(F)CC3)n2)n1 [NSSy6468],+ (+ means >1 uM)
4,"Cc1csc(-c2nc(O)cc(NC3CCC(F)(F)CC3)n2)n1 [NSSy6082, 6-((4,4-difluorocyclohexyl)amino)-2-(4-methylthiazol-2-yl)pyrimidin-4-ol]",+ (+ means >1 uM)
5,"COC(=O)N1CC(Oc2cc(NC3CCC(F)(F)CC3)cc(-n3ccc(C)n3)c2)C1 [NSSy5934, methyl 3-(3-((4,4-difluorocyclohexyl)amino)-5-(3-methyl-1H-pyrazol-1-yl)phenoxy)azetidine-1-carboxylate]",+ (+ means >1 uM)
6,"Cc1ccn(-c2cc(NC3CCC(F)(F)CC3)cc(OCc3ncnn3C)n2)n1 [NSSy5638, N-(4,4-difluorocyclohexyl)-2-((1-methyl-1H-1,2,4-triazol-5-yl)methoxy)-6-(3-methyl-1H-pyrazol-1-yl)pyridin-4-amine]",++ (++ means 200 nM-1000 nM)
7,Cc1csc(-c2nc(NC3CCC(F)(F)CC3)cc(N3CCC(C4COC4)CC3)n2)n1 [NSSy5787],++ (++ means 200 nM-1000 nM)
8,"Cc1ccn(-c2cc(N3CCOCC3)cc(C(=O)c3ccc(F)cc3)n2)n1 [NSSy6470, (4-fluorophenyl) (6-(3-methyl-1H-pyrazol-1-yl)-4-morpholinopyridin-2-yl) methanone]",+ (+ means >1 uM)
9,"FC1(F)CCC(Nc2cc(N3CCCOCC3)nc(-n3ccc(C4CC4)n3)n2)CC1 [IN11217-003-P1, 2-(3-cyclopropyl-1H-pyrazol-1-yl)-N-(4,4-difluorocyclohexyl)-6-(1,4-oxazepan-4-yl)pyrimidin-4-amine]",++ (++ means 200 nM-1000 nM)
10,"Cc1cc(C)n(-c2cc(CO)cc(NC3CC(F)(F)C3)n2)n1 [IN11146-039-P1, (2-((3,3-difluorocyclobutyl)amino)-6-(3,5-dimethyl-1H-pyrazol-1-yl)pyridin-4-yl) methanol]",+ (+ means >1 uM)
11,"Cc1cc(C)n(-c2cc(C(O)Cc3cnn(C)n3)cc(NC3CCC(F)(F)CC3)n2)n1 (stereo not shown) [NSSy7053, 1-(2-((4,4-difluorocyclohexyl)amino)-6-(3,5-dimethyl-1H-pyrazol-1-yl)pyridin-4-yl)-2-(2-methyl-2H-1,2,3-triazol-4-yl) ethan-1-ol]",++ (++ means 200 nM-1000 nM)
12,"CNCc1cc(NC2CCC(F)(F)CC2)nc(-c2nc(C)cs2)n1 [IN11059-096-P1, N-(4,4-difluorocyclohexyl)-6-((methylamino)methyl)-2-(4-methylthiazol-2-yl)pyrimidin-4-amine]",+ (+ means >1 uM)
13,Cc1csc(-c2nc(NC3CCC(F)(F)CC3)cc(N3CC4CCC(C3)O4)n2)n1 [NSSy6129],++ (++ means 200 nM-1000 nM)
14,"Cc1cn(-c2cc(OC3COC3)cc(NC3CCC(F)(F)CC3)n2)nc1CF [NSSy5615, N-(4,4-difluorocyclohexyl)-6-(3-(fluoromethyl)-4-methyl-1H-pyrazol-1-yl)-4-(oxetan-3-yloxy)pyridin-2-amine]",++ (++ means 200 nM-1000 nM)
15,"COc1cnc(-c2nc(C3CC3)cs2)nc1NC1CCC(F)(F)CC1 [IN11147-096-P1, 2-(4-cyclopropylthiazol-2-yl)-N-(4,4-difluorocyclohexyl)-5-methoxypyrimidin-4-amine]",+++ (+++ means <200 nM)
16,Cc1ccn(-c2cc(OCc3nnc(C)o3)cc(NC3CCC(F)(F)CC3)n2)n1 [NSSy5681],+ (+ means >1 uM)

row,SMILES,SC100 (μM)
1,Cc1cc(C)n(-c2nc(NC3CCC(F)(F)CC3)cc(N3CCOC(COC(F)F)C3)n2)n1 (stereo not shown) [IN10984-022-P1],++ (++ means 200 nM-1000 nM)
2,"FCc1ccn(-c2nc(NC3CCC(F)(F)CC3)cc(OC3CC(F)(F)C3)n2)n1 [NSSy5619, 6-(3,3-difluorocyclobutoxy)-N-(4,4-difluorocyclohexyl)-2-(3-(fluoromethyl)-1H-pyrazol-1-yl)pyrimidin-4-amine]",+ (+ means >1 uM)
3,"CC(=O)N1CCC(O)(c2cc(NC3CCC(F)(F)CC3)nc(-c3nc(C)cs3)c2)CC1 [NSSy6436, 1-(4-(2-((4,4-difluorocyclohexyl)amino)-6-(4-methylthiazol-2-yl)pyridin-4-yl)-4-hydroxypiperidin-1-yl)ethan-1-one]",+++ (+++ means <200 nM)
4,COc1cnc(-n2ccc(C)n2)nc1NC1CCC(F)(F)CC1 [NSSy7055],+ (+ means >1 uM)
5,Cn1cnc(COc2cc(NC3CCC(F)(F)CC3)nc(-n3ccc(C4CC4)n3)n2)n1 [IN11106-066-P1],+ (+ means >1 uM)
6,COc1cc(NC2CCCSC2)nc(-c2nc(C)cs2)n1 (stereo not shown) [IN11137-018-P1],+ (+ means >1 uM)
7,"CC(O)c1cc(NC2CCC(F)(F)CC2)nc(-c2nc(C3CC3)cs2)n1 (stereo not shown) [IN11147-066-P1, 1-(2-(4-cyclopropylthiazol-2-yl)-6-((4,4-difluorocyclohexyl)amino)pyrimidin-4-yl) ethan-1-ol]",++ (++ means 200 nM-1000 nM)
8,Cc1ccn(-c2nc(NCCO)cc(NC3CCC(F)(F)CC3)n2)n1 [IN11250-032-P1],++ (++ means 200 nM-1000 nM)
9,Cc1ccn(-c2cc(COc3ccc(C(N)=O)nn3)cc(NC3CCC(F)(F)CC3)n2)n1 [NSSy6451],+++ (+++ means <200 nM)
10,Cc1ccn(-c2cc(N3CC4CCCC4C3)nc(NC3CCC(F)(F)CC3)n2)n1 (stereo not shown) [NSSy6584],+ (+ means >1 uM)
11,Cc1csc(-c2nc(NC3CCCC(F)(F)C3)cc(N3CCOCC3)n2)n1 (stereo not shown) [IN10966-028-P1],++ (++ means 200 nM-1000 nM)
12,"CCOCCc1cc(NC2CCC(F)(F)CC2)nc(-n2ccc(C3CC3)n2)n1 [IN11217-069-P1, 2-(3-cyclopropyl-1H-pyrazol-1-yl)-N-(4,4-difluorocyclohexyl)-6-(2-ethoxyethyl)pyrimidin-4-amine]",+ (+ means >1 uM)
13,"Cc1cc(C)n(-c2nc(NC3CCC(F)(F)CC3)cc(C(C)N3CCOCC3)n2)n1 (stereo not shown) [IN10987-055-P1, N-(4,4-difluorocyclohexyl)-2-(3,5-dimethyl-1H-pyrazol-1-yl)-6-(1-morpholinoethyl)pyrimidin-4-amine]",+ (+ means >1 uM)
14,Cc1cc(C)n(-c2nc(NC3CCCCC3)cc(C(C)O)n2)n1 (stereo not shown) [IN10973-008-P1],+ (+ means >1 uM)
15,Cc1cc(C)n(-c2nc(NC3CC(F)(F)C3)cc(N3CCOCC3)n2)n1 [IN11108-019-P1],+ (+ means >1 uM)
16,"Cc1csc(-c2nc(N3CCOCC3)cc(N3CC4CCCCC43)n2)n1 (stereo not shown) [NSSy6348, 4-(6-(7-azabicyclo[4.2.0]octan-7-yl)-2-(4-methylthiazol-2-yl)pyrimidin-4-yl)morpholine]",+ (+ means >1 uM)
